The supplement of paper PMC10307832

Experiments:
Experiment in all cases: relative viability (nuclei count vs DMSO), 5 days (fraction); higher = more cells survive
[1] = compound: C1=CC(=CC=C1C2=CC(=C(S2)NC(=O)N)C(=O)N)F [TPCA-1] + Cc1cc(Nc2cc(N3CCN(C)CC3)nc(Sc3ccc(NC(=O)C4CC4)cc3)n2)n[nH]1 [Tozasertib] (partner 0.1 µM)
Procedure, shortened: (§1)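 Relative viability is defined as nuclei in treated wells over nuclei in vehicle wells. Duplicate plates were run and medians reported. Lung cancer cell lines in 1536-well plates were dosed by pin tool one day after seeding, with one drug or with a fixed anchor-drug dose plus five library-drug doses (not always all listed) in √10 steps, and nuclei were counted after 5 days.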

[2] = compound: C[C@]12O[C@H](C[C@]1(O)CO)n1c3ccccc3c3c4c(c5c6ccccc6n2c5c31)CNC4=O [Lestaurtinib] + CC(=O)c1c(C)c2cnc(Nc3ccc(N4CCNCC4)cn3)nc2n(C2CCCC2)c1=O [Palbociclib] (partner 0.5 µM)
Procedure, shortened: as §1

[3] = compound: C[C@]12O[C@H](C[C@]1(O)CO)n1c3ccccc3c3c4c(c5c6ccccc6n2c5c31)CNC4=O [Lestaurtinib] + Cc1nc(NC(=O)N2CCC[C@H]2C(N)=O)sc1-c1ccnc(C(C)(C)C(F)(F)F)c1 [Alpelisib] (partner 2 µM)
Procedure, shortened: as §1

[4] = compound: C[C@]12O[C@H](C[C@]1(O)CO)n1c3ccccc3c3c4c(c5c6ccccc6n2c5c31)CNC4=O [Lestaurtinib] + Nc1ncn([C@H]2C[C@H](O)[C@@H](CO)O2)c(=O)n1 [Decitabine] (partner 2 µM)
Procedure, shortened: as §1

| Cell Line | relative viability ([1]; first compound 0.04 µM) | relative viability ([1]; first compound 0.1265 µM) | relative viability ([1]; first compound 0.4 µM) | relative viability ([1]; first compound 1.265 µM) | relative viability ([1]; first compound 4 µM) | relative viability ([2]; first compound 0.005 µM) | relative viability ([2]; first compound 0.01581 µM) | relative viability ([2]; first compound 0.05 µM) | relative viability ([2]; first compound 0.1581 µM) | relative viability ([2]; first compound 0.5 µM) | relative viability ([3]; first compound 0.005 µM) | relative viability ([3]; first compound 0.01581 µM) | relative viability ([3]; first compound 0.05 µM) | relative viability ([3]; first compound 0.1581 µM) | relative viability ([3]; first compound 0.5 µM) | relative viability ([4]; first compound 0.005 µM) | relative viability ([4]; first compound 0.01581 µM) | relative viability ([4]; first compound 0.05 µM) | relative viability ([4]; first compound 0.1581 µM) | relative viability ([4]; first compound 0.5 µM) |
| --- | --- | --- | --- | --- | --- | --- | --- | --- | --- | --- | --- | --- | --- | --- | --- | --- | --- | --- | --- | --- |
| HCC-78 | 0.406 | 0.413 | 0.427 | 0.477 | 0.205 | 0.453 | 0.545 | 0.53 | 0.557 | 0.427 | 0.349 | 0.328 | 0.334 | 0.246 | 0.226 | 0.748 | 0.884 | 0.712 | 0.662 | 0.441 |
| COR-L23 | 0.155 | 0.168 | 0.18 | 0.134 | 0.129 | 0.337 | 0.319 | 0.223 | 0.248 | 0.11 | 0.716 | 0.702 | – | 0.478 | 0.192 | 0.487 | 0.511 | 0.384 | 0.354 | 0.153 |
| NCI-H1993 | 0.573 | 0.562 | 0.655 | 0.606 | 0.559 | 0.689 | 0.27 | 0.717 | 0.569 | 0.411 | 0.788 | 0.677 | 0.691 | 0.591 | 0.583 | 0.62 | 0.666 | 0.729 | 0.499 | 0.428 |
| NCI-H2405 | 0.753 | 0.75 | 0.765 | 0.754 | 0.555 | 0.518 | 0.546 | 0.492 | 0.515 | 0.275 | 0.842 | 0.643 | 0.488 | 0.367 | 0.258 | 0.728 | 0.77 | 0.742 | 0.638 | 0.413 |
| NCI-H2126 | 0.877 | 0.768 | 0.886 | 0.829 | 0.338 | 0.339 | 0.372 | 0.388 | 0.357 | 0.339 | 0.785 | 0.746 | 0.608 | 0.681 | 0.478 | 0.582 | 0.593 | 0.623 | 0.536 | 0.553 |
| NCI-H1944 | 0.239 | 0.252 | 0.239 | 0.247 | 0.208 | 0.334 | 0.332 | 0.286 | 0.248 | 0.292 | 0.82 | 0.745 | 0.61 | 0.41 | 0.383 | 0.419 | 0.481 | 0.442 | 0.463 | 0.317 |
| NCI-H358 | 0.126 | 0.113 | 0.108 | 0.105 | 0.0839 | 0.132 | 0.131 | 0.14 | 0.111 | 0.108 | 0.656 | 0.601 | 0.343 | 0.266 | 0.202 | 0.219 | 0.212 | 0.15 | 0.12 | 0.144 |
| NCI-H1734 | 0.272 | 0.29 | 0.266 | 0.264 | 0.264 | 0.352 | 0.255 | 0.338 | 0.331 | 0.197 | 0.732 | 0.689 | 0.569 | 0.377 | 0.304 | 0.56 | 0.499 | 0.442 | 0.444 | 0.253 |
| A-427 | 0.231 | 0.211 | 0.192 | 0.161 | 0.147 | 0.506 | 0.554 | 0.521 | 0.444 | 0.207 | 1.14 | 1.16 | 0.952 | 0.571 | 0.4 | 0.548 | 0.544 | 0.518 | 0.347 | 0.2 |
| RERF-LC-KJ | 0.556 | 0.518 | 0.61 | 0.43 | 0.29 | 1.15 | 1.15 | 0.845 | 0.87 | 0.565 | 0.888 | 0.689 | 0.591 | 0.535 | 0.445 | 0.869 | 0.791 | 0.563 | 0.562 | 0.241 |
| NCI-H727 | 0.558 | 0.719 | 0.693 | 0.661 | 0.492 | 0.723 | 0.713 | 0.719 | – | 0.716 | 0.627 | 0.481 | 0.554 | 0.49 | 0.155 | 0.957 | 0.87 | 0.882 | – | 0.579 |
| LCLC-97TM1 | 0.242 | 0.261 | 0.223 | 0.185 | 0.117 | – | 0.243 | 0.133 | 0.134 | 0.194 | 0.256 | 0.189 | 0.171 | 0.138 | 0.148 | – | 0.242 | 0.207 | 0.245 | 0.257 |
| BEN | 0.548 | – | 0.526 | 0.628 | 0.403 | 0.483 | 0.537 | 0.467 | 0.432 | 0.399 | 1.09 | 1.31 | 0.852 | 0.722 | 0.446 | 0.787 | 0.854 | 0.688 | 0.459 | 0.349 |
| NCI-H2023 | 0.357 | 0.282 | 0.335 | 0.15 | 0.0965 | 0.402 | 0.316 | 0.384 | 0.261 | 0.121 | 0.674 | 0.616 | 0.536 | 0.488 | 0.384 | 0.241 | 0.254 | 0.231 | 0.183 | 0.105 |
| LC-2-ad | 0.514 | 0.41 | 0.469 | 0.459 | 0.315 | 0.59 | 0.527 | 0.418 | 0.429 | 0.293 | 0.961 | 0.829 | 0.354 | 0.227 | 0.139 | 0.912 | 0.829 | 0.755 | 0.654 | 0.476 |
| ABC-1 | 0.153 | 0.199 | 0.137 | 0.163 | 0.142 | 0.618 | 0.625 | 0.647 | 0.619 | 0.42 | 1.06 | 1.02 | 0.845 | 0.658 | 0.262 | 1.31 | 1.36 | 1.12 | 0.96 | 0.66 |
